These results are taken from patent US20240277861A1, “ANTI-HEPATITIS B VIRUS AGENT TARGETING HOST FACTOR LIPG” (PUROTECH BIO, INC., priority 2021, published 2024).

In series [1] the test system is HBV. Description: HBV attachment, uptake and replication in Huh7-LIPG cells. Format: cell-based. To be noted: Huh7-LIPG cells infected with HBV, 3 days after treatment. On the procedure: (§1) HBV-DNA and cccDNA were quantified by qPCR as described below. Total DNA was extracted from cells using DNeasy Blood & Tissue Kit (Qiagen, Hilden, Germany). HBV-DNA was quantified by qPCR analysis as previously reported (Honda. M. et al., J. Infect. Dis., 213, 1096-1106, 2016). The extracted DNA (50 ng) was treated with 10 U of Plasmid safe DNase I (Epicentre, Madison. WI) at 37° C. for 60 minutes and then treated at 70° C. for 30 minutes for DNase inactivation, cccDNA was quantified by qPCR analysis as previously reported (Honda, M. et al., J. Infect. Dis. 213, 1096-1106, 2016). Quantitative RT-PCR was performed as described below. The GenElute™ Mammalian Total RNA Miniprep Kit (Sigma-Aldrich) was used for extraction of total RNA, and the High Capacity cDNA Reverse Transcription Kit (Applied Biosystems, Carlsbad, CA) was used for cDNA synthesis. The 7500 Real Time PCR System (Applied Biosystems) was used for RT-PCR. Primers 5′-[…]-3′ (SEQ ID NO: 31) and 5′-[…]-3′ (SEQ ID NO: 32) and a probe 5′-FAM-[…]-MGB-3′ (SEQ ID NO: 33) were used for pregenomic RNA. Primer pairs and probes for LIPG, NTCP. 18SrRNA, and ACTB were obtained from the TaqMan assay reagents library.
When the abundance of LIPG expression was compared among different liver cell lines. […] HepG2-NTCP-C4 cells with overexpression of FLAG-LIPG (HepG2-NTCP-C4-LIPG cells) were established (FIG. 2B), and the attachment and uptake of HBV into cells were assayed in the resulting cells. Heparin, which has been reported to inhibit HBV attachment (Schulze. A. et al., Hepatology 46: 1759-1768, 2007), and heparanase, an endo-β-D-glucuronidase that cleaves the heparan sulfate side chain in heparan sulfate proteoglycans (HSPGs) (Bame, KJ. Glycobiology,11: 91R-98R,2001), were used as control compounds. […] HBV attachment was detected by qPCR of HBV-DNA at 3 hours after HBV inoculation at 4° C. in the presence or absence of the compound (heparin or heparanase). […]

Series [2] concerns HBV. Description: HBV attachment and uptake assay in HepG2-NTCP-C4-LIPG cells. It is filed as cell-based. To be noted: concentration-dependent. The method, then:
as §1
When the abundance of LIPG expression was compared among different liver cell lines. […] HepG2-NTCP-C4 cells with overexpression of FLAG-LIPG (HepG2-NTCP-C4-LIPG cells) were established (FIG. 2B), and the attachment and uptake of HBV into cells were assayed in the resulting cells. Heparin, which has been reported to inhibit HBV attachment (Schulze. A. et al., Hepatology 46: 1759-1768, 2007), and heparanase, an endo-β-D-glucuronidase that cleaves the heparan sulfate side chain in heparan sulfate proteoglycans (HSPGs) (Bame, KJ. Glycobiology,11: 91R-98R,2001), were used as control compounds. Cells (HepG2-NTCP-C4-LIPG cells and HepG2-NTCP-C4 control cells) were pretreated with these compounds for 1 hour and then with HBV at 4° C. for 3 hours to allow HBV to attach the cells, washed to wash out HBV, and further incubated at 37° C. for 12 hours to detect uptake of HBV (FIG. 2C). In addition, the cells were further cultured in a conventional culture medium for 3 days after HBV inoculation to detect HBV DNA and cccDNA in the cells (FIG. 2C). HBV attachment was detected by qPCR of HBV-DNA at 3 hours after HBV inoculation at 4° C. in the presence or absence of the compound (heparin or heparanase). HBV attachment (FIG. 2D), uptake (FIG. 2E), and replication of HBV DNA and cccDNA (FIGS. 2F and 2G) were all increased in the HepG2-NTCP-C4-LIPG cells compared to the HepG2-NTCP-C4 control cells.
Next, the effect of a LIPG inhibitor (GSK-264220A) on HBV attachment and uptake was examined. […] At the same time, this inhibitor had no effect on HepG2-NTCP-C4 control cells.

The next series deals with HBV-cccDNA. The note with it: Patent Document 1; cited from earlier work.
In series [3] the test system is HBV. Description: HBV attachment and uptake assay in HepG2-NTCP-C4 cells. The note with it: HepG2-NTCP-C4 control cells. It is filed as cell-based. The method, then: as §1, with “18SrRNA, and ACTB were obtained from the TaqMan assay reagents library.” left out
When the abundance of LIPG expression was compared among different liver cell lines. […] HBV attachment was detected by qPCR of HBV-DNA at 3 hours after HBV inoculation at 4° C. in the presence or absence of the compound (heparin or heparanase). […]

Series [4] has as its target T1, N4BP1 (NEDD4 Binding Protein 1).
T1 chain: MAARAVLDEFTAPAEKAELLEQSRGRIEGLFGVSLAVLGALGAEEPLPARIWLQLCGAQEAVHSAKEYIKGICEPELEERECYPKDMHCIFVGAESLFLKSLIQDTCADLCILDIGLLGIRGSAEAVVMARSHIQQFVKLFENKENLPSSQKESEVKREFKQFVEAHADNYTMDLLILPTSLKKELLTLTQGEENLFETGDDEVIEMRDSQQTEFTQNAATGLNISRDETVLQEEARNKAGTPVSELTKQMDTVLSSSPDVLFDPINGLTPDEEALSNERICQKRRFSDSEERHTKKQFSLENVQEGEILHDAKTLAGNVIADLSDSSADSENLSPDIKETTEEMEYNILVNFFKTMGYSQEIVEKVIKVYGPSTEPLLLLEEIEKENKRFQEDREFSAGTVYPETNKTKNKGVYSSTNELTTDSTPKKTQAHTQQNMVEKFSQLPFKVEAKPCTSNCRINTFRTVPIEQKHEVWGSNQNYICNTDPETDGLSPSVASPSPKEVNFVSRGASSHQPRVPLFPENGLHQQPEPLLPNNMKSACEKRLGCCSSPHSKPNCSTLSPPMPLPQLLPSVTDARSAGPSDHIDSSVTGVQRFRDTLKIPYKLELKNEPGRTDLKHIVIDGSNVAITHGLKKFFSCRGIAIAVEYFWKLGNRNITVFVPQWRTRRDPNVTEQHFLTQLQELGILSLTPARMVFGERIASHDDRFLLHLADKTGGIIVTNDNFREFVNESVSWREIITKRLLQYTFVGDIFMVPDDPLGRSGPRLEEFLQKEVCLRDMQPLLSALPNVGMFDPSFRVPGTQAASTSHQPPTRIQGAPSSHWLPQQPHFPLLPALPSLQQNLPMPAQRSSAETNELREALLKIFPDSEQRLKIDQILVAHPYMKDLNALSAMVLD

`Cc1oc(S(=O)(=O)N2CCCCC2)cc1NC(=O)Nc1ccccc1` [GSK-264220A]: the “LIPG-mediated increase in HBV replication (cccDNA)” value with HBV [1] is on record as “reduced HBV replication”. The “HBV attachment (HBV-DNA)” value in the series on HBV [2] (3 hours after HBV inoculation at 4° C.) was “inhibited”. The “HBV uptake (HBV-DNA)” value in the series with HBV [2] (12 hours after being recultured at 37° C.) is listed as “inhibited”. The HBV-cccDNA result with HBV-cccDNA is “effective in reducing HBV-cccDNA”. Also, the “HBV attachment and uptake” value with HBV [3] is on record as “no effect”.

B1: LIPG (500 aa, MW: 56.8 kDa) (protein)
chain: SPVPFGPEGRLEDKLHKPKATQTEVKPSVRFNLRTSKDPEHEGCYLSVGHSQPLEDCSFNMTAKTFFIIHGWTMSGIFENWLHKLVSALHTREKDANVVVVDWLPLAHQLYTDAVNNTRVVGHSIARMLDWLQEKDDFSLGNVHLIGYSLGAHVAGYAGNFVKGTVGRITGLDPAGPMFEGADIHKRLSPDDADFVDVLHTYTRSFGLSIGIQMPVGHIDIYPNGGDFQPGCGLNDVLGSIAYGTITEVVKCEHERAVHLFVDSLVNQDKPSFAFQCTDSNRFKKGICLSCRKNRCNSIGYNAKKMRNKRNSKMYLKTRAGMPFRVYHYQMKIHVFSYKNMGEIEPTFYVTLYGTNADSQTLPLEIVERIEQNATNTFLVYTEEDLGDLLKIQLTWEGASQSWYNLWKEFRSYLSQPRNPGRELNIRRIRVKSGETQRKLTFCTEDPENTSISPGRELWFRKCRDGWRMKNETSPTVELP
Turning to B1, the “degradation of a 1203-base HBV L protein RNA by N4BP1 (RNase activity), agarose gel” value in series [4] is on record as “the degradation of the RNA was suppressed in the presence of LIPG by binding of LIPG to N4BP1”.
